Here are results for 32 molecules from patent US20090325964A1, “Piperazine Metabotropic Glutamate Receptor 5 (MGLUR5) Negative Allosteric Modulators For Anxiety/Depression” (Wyeth, priority 2008, published 2009).

Where two headings read alike, the source gives them in different places.

The target of the experiment is T1, rat mGluR5 receptor (Rattus norvegicus, UniProt P31424).
T1 construct: expressed in transfected cells; host or cells: HEK-293
In words: [3H]-MPEP displacement binding assay, HEK-293 cell membranes expressing rat mGluR5. Conditions: for Ki: read-out: Median Ki. Here is the method:
MGluR5 expressing HEK-293 cells were scraped off a plate, transferred to centrifuge tubes and washed twice by centrifugation (2000 rpm for 10 minutes, at 4° C.) in buffer (50 mM Tris pH 7.5). The resulting pellets were aliquoted and stored at minus 80° C. On the day of assay, the cells were thawed on ice and re-suspended in buffer. The binding assay was performed in a 96 well microtiter plate in a total volume of […]. Non-specific binding was determined in the presence of 10 μM MPEP. The binding reaction included a final radioligand [^3H]-MPEP concentration of 4 nM and 12-25 μg membrane protein per well. Following a 60 minute incubation at room temperature, the reaction was terminated by the addition of ice cold buffer and rapid filtration through a GF/B filter that had been presoaked for 30 minutes in 0.5% PEI. Compounds were initially tested in a single point assay to determine percent inhibition at 10 μM.
Percent inhibition and Ki values were generated by GraphPad Prism and Excel Fit. IC50 values were calculated using GraphPad by fitting to a 1 or 2 site-binding model.
where [L] is the concentration of free radioligand and Kd is the dissociation constant of radioligand for the receptor.

[1] abbreviates: 1 h, single point, @ 10 μm compound, Table 1A, read-out: PCT INHIB (%) @ 10 μm.
Setting [2] is: [3H]-MPEP displacement, rat mGluR5.
[3] abbreviates: @ 10 μM compound, Biological Activity, Table 2A, read-out: PCT INHIB (%) @ 10 μM.
Setting [4] is: single point, @ 10 μM compound, Table 6, read-out: PCT INHIB (%) @ 10 μM.

T1 sequence (P31424 21-1203): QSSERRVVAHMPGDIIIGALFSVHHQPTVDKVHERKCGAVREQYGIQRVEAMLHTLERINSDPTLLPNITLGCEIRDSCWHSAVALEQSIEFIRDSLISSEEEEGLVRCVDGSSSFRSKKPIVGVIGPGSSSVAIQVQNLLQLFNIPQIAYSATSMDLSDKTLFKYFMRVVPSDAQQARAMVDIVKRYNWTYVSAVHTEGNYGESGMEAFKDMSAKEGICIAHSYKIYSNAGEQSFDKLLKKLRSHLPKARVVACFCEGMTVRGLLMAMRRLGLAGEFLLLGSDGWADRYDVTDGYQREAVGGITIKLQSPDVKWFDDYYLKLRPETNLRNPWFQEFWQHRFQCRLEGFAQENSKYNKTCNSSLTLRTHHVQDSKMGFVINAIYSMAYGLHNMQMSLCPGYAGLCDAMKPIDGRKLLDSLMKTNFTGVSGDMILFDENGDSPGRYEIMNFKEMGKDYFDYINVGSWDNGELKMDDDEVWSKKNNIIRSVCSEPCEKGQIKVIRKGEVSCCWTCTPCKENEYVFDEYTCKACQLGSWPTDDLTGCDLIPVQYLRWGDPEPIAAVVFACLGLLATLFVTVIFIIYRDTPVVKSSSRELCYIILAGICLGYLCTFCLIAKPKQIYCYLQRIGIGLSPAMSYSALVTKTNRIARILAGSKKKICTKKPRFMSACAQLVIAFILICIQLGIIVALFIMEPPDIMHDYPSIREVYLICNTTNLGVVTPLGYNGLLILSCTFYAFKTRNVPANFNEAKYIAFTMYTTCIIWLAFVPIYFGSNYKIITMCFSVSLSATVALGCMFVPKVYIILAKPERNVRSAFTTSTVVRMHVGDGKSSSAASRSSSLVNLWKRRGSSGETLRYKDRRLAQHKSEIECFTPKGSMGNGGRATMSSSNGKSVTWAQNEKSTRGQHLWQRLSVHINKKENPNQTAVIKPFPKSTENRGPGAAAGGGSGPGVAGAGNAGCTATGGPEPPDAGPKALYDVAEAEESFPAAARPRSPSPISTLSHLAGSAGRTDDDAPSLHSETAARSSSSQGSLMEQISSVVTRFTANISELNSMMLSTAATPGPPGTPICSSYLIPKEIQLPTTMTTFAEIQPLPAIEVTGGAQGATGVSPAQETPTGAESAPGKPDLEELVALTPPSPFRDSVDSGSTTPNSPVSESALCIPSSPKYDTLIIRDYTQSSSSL

On to `Cc1ccc(C(=O)N2CCN(c3ccccn3)CC2)cc1C#CCc1ccccc1` [Compound 25, 1-[4-methyl-3-(3-phenylprop-1-yn-1-yl)benzoyl]-4-pyridin-2-ylpiperazine], for which the Ki (commonly a dissociation constant, usually derived from enzyme kinetics or from competition with a known ligand) turned out to be 452 nM. For the same molecule, the inhibition at 10 µM under setting [1] was 63%.
For the molecule `COc1cccc(COc2cccc(C(=O)N3CCN(c4ccccn4)CC3)c2)c1` [Compound 155, 1-{3-[(3-methoxybenzyl)oxy]benzoyl}-4-pyridin-2-ylpiperazine], the inhibition at 10 µM (single point, @ 10 μM compound, Table 3A, read-out: PCT INHIB (%) @ 10 μM) stood at 0%.
As to `COc1ccc(C(=O)N2CCN(c3ncccn3)CC2)cc1C#Cc1ccccc1Cl` [Compound 360, 2-(4-{3-[(2-chlorophenyl)ethynyl]-4-methoxybenzoyl}piperazin-1-yl)pyrimidine], the Ki under setting [2] stood at 4500 nM.
With `COc1ccc(C(=O)N2CCN(c3cnccn3)CC2)cc1C#CC1=CCCCC1` [Compound 50, 2-{4-[3-(cyclohex-1-en-1-ylethynyl)-4-methoxybenzoyl]piperazin-1-yl}pyrazine], the inhibition constant (Ki) came out at 171 nM. Besides, the inhibition at 10 µM under setting [1] stood at 90%.
With `O=C(c1cccc(C#Cc2ccccc2)c1)N1CCN(c2ccncc2)CC1` [Compound 142, 1-[3-(phenylethynyl)benzoyl]-4-pyridin-4-ylpiperazine], the inhibition at 10 µM under setting [3] came to 53%.
Regarding `Cc1ccc(C(=O)N2CCN(c3ccccn3)CC2)cc1C#Cc1ccccn1` [Compound 42, 1-[4-methyl-3-(pyridin-2-ylethynyl)benzoyl]-4-pyridin-2-ylpiperazine], the inhibitory constant (Ki) came out at 5.9 nM. Moreover, the inhibition at 10 µM under setting [1] stood at 96%.
As for `COc1cc(C#Cc2cc(C(=O)N3CCN(c4ccccn4)CC3)ccc2C)cc(OC)c1` [Compound 40, 1-{3-[(3,5-dimethoxyphenyl)ethynyl]-4-methylbenzoyl}-4-pyridin-2-ylpiperazine], the inhibition at 10 µM under setting [1] amounted to 0%.
For `COc1ccc(C(=O)N2CCN(Cc3c(F)cccc3Cl)CC2)cc1C#Cc1ccccn1` [Compound 289, 1-(2-chloro-6-fluorobenzyl)-4-[4-methoxy-3-(pyridin-2-ylethynyl)benzoyl]piperazine], the Ki under setting [2] turned out to be 269 nM.
With `O=C(c1cccc(COc2cccc(Br)c2)c1)N1CCN(c2ccccn2)CC1` [Compound 169, 1-{3-[(3-bromophenoxy)methyl]benzoyl}-4-pyridin-2-ylpiperazine], the Ki ([3H]-MPEP 4 nM, Table 4A) is 862 nM.
Take `COc1ccc(C(=O)N2CCN(c3nc(Cl)ncc3F)CC2)cc1C#Cc1ccccn1` [Compound 295, 2-chloro-5-fluoro-4-{4-[4-methoxy-3-(pyridin-2-ylethynyl)benzoyl]piperazin-1-yl}pyrimidine]: under setting [2], the Ki was found to be 102 nM.
For `Cc1ccc(C(=O)N2CCN(c3ccccn3)CC2)cc1C#Cc1cc(C(F)(F)F)cc(C(F)(F)F)c1` [Compound 47, 1-(3-{[3,5-bis(trifluoromethyl)phenyl]ethynyl}-4-methylbenzoyl)-4-pyridin-2-ylpiperazine], under setting [1], the inhibition at 10 µM was 0%.
For the molecule `Cc1ccc(C(=O)N2CCN(c3cnccn3)CC2)cc1C#CCc1ccccc1` [Compound 57, 2-{4-[4-methyl-3-(3-phenylprop-1-yn-1-yl)benzoyl]piperazin-1-yl}pyrazine], the inhibitory constant (Ki) was determined as 363 nM. The inhibition at 10 µM under setting [1] is 87%.
On to `O=C(c1cccc(C#Cc2ccccc2)c1)N1CCN(c2ccc(O)cc2)CC1` [Compound 83, 4-{4-[3-(phenylethynyl)benzoyl]piperazin-1-yl}phenol], for which the inhibition at 10 µM under setting [3] turned out to be 74%. Moreover, the inhibitory constant (Ki) (Biological Activity, Table 2A) was > 10000 nM.
In the case of `COc1nc(N2CCN(C(=O)c3ccc(OC(F)(F)F)c(C#Cc4ccccn4)c3)CC2)ncc1Br` [Compound 339, 5-bromo-4-methoxy-2-{4-[3-(pyridin-2-ylethynyl)-4-(trifluoromethoxy)benzoyl]piperazin-1-yl}pyrimidine], under setting [2], the inhibition constant (Ki) is 702 nM.
Regarding `Cc1ccc(C(=O)N2CCN(c3cnccn3)CC2)cc1C#CC1=CCCCC1` [Compound 56, 2-{4-[3-(cyclohex-1-en-1-ylethynyl)-4-methylbenzoyl]piperazin-1-yl}pyrazine], the Ki stood at 1890 nM. Also, the inhibition at 10 µM under setting [1] turned out to be 70%.
In the case of `COc1ccc(C(=O)N2CCN(c3ncccc3C#N)CC2)cc1C#Cc1ccccc1` [Compound 118, 2-{4-[4-methoxy-3-(phenylethynyl)benzoyl]piperazin-1-yl}nicotinonitrile], under setting [3], the inhibition at 10 µM stood at 78%. In addition, the inhibition constant Ki (Biological Activity, Table 2A) came to 1760 nM.
On to `O=C(c1cccc(C#Cc2ccccc2)c1)N1CCN(c2ccc(C(F)(F)F)cc2)CC1` [Compound 77, 1-[3-(phenylethynyl)benzoyl]-4-[4-(trifluoromethyl)phenyl]piperazine], for which the inhibition at 10 µM under setting [3] stood at 0%.
In the case of `O=C(c1cccc(C#Cc2ccccn2)c1)N1CCN(c2nccc(-c3ccccc3)n2)CC1` [Compound 106, 4-phenyl-2-{4-[3-(pyridin-2-ylethynyl)benzoyl]piperazin-1-yl}pyrimidine], the inhibition at 10 µM under setting [3] turned out to be 86%. For the setting “Biological Activity, Table 2A”, the inhibitory constant (Ki) came out at 2.19 nM.
Take `Cc1ccc(C(=O)N2CCN(c3ncccc3Cl)CC2)cc1C#Cc1ccccn1` [Compound 311, 1-(3-chloropyridin-2-yl)-4-[4-methyl-3-(pyridin-2-ylethynyl)benzoyl]piperazine]: under setting [2], the Ki came to 140 nM.
For `Cc1ccc(C(=O)N2CCN(c3ccccn3)CC2)cc1C#Cc1cccc(O)c1` [Compound 46, 3-({2-methyl-5-[(4-pyridin-2-ylpiperazin-1-yl)carbonyl]phenyl}ethynyl)phenol], the Ki was determined as 1310 nM. Also, the inhibition at 10 µM under setting [1] worked out at 71%.
As to `Cc1cccc(N2CCN(C(=O)c3ccc(C(F)(F)F)c(C#Cc4ccccn4)c3)CC2)n1` [Compound 380, 1-(6-methylpyridin-2-yl)-4-{[3-(pyridin-2-ylethynyl)-4-(trifluoromethyl)phenyl]carbonyl}piperazine], the inhibition constant Ki ([3H]-MPEP displacement, rat mGluR5 membranes) worked out at 352 nM.
With `COc1ccc(C(=O)N2CCN(c3nc(C)cc(C)n3)CC2)cc1C#Cc1ccccc1` [Compound 119, 2-{4-[4-methoxy-3-(phenylethynyl)benzoyl]piperazin-1-yl}-4,6-dimethylpyrimidine], the inhibition at 10 µM under setting [3] is 35%.
For the molecule `COc1ccc(C(=O)N2CCN(c3ncccc3Cl)CC2)cc1C#Cc1ccc(C(C)=O)cc1` [Compound 347, 1-{4-[(5-{[4-(3-chloropyridin-2-yl)piperazin-1-yl]carbonyl}-2-methoxyphenyl)ethynyl]phenyl}ethanone], the half-maximal inhibitory concentration (IC50) (commonly the concentration that gives 50% inhibition) ([3H]-MPEP displacement, rat mGluR5, no Ki given, read-out: IC50 (printed in the Median Ki column instead of a Ki)) was > 10000 nM.
For `Cc1ccnc(N2CCN(C(=O)c3cncc(C#Cc4ccccc4)c3)CC2)c1` [Compound 133, 1-(4-methylpyridin-2-yl)-4-{[5-(phenylethynyl)pyridin-3-yl]carbonyl}piperazine], the inhibition at 10 µM under setting [3] was determined as 52%. Further, under “Biological Activity, Table 2A”, the inhibition constant Ki was found to be 651 nM.
Regarding `Cc1ccc(C(=O)N2CCN(c3ccccn3)CC2)cc1C#CC1=CCCCC1` [Compound 24, 1-[3-(cyclohex-1-en-1-ylethynyl)-4-methylbenzoyl]-4-pyridin-2-ylpiperazine], the Ki was found to be 1290 nM. The inhibition at 10 µM under setting [1] is 71%.
Turning to `COc1ccc(C(=O)N2CCCN(c3ncccc3C(F)(F)F)CC2)cc1C#Cc1ccccn1` [Compound 209, 1-[4-methoxy-3-(pyridin-2-ylethynyl)benzoyl]-4-[3-(trifluoromethyl)pyridin-2-yl]-1,4-diazepane], the Ki under setting [2] is 674 nM.
The same measure, in the same setting: for `COc1ccc(C(=O)N2CCN(c3ncccn3)CC2)cc1C#Cc1cccnc1` [Compound 354, 2-{4-[4-methoxy-3-(pyridin-3-ylethynyl)benzoyl]piperazin-1-yl}pyrimidine] the value was 4970 nM.
Consider `COc1ccc(C(=O)N2CCN(c3ccccn3)CC2)cc1C#Cc1cc(F)cc(F)c1` [Compound 21, 1-{3-[(3,5-difluorophenyl)ethynyl]-4-methoxybenzoyl}-4-pyridin-2-ylpiperazine], for which the Ki worked out at 1940 nM. In addition, the inhibition at 10 µM under setting [1] amounted to 79%.
On to `C(#Cc1cccc(CN2CCN(c3ccccn3)CC2)c1)Cc1ccccc1` [Compound 179, 1-[3-(3-phenylprop-1-yn-1-yl)benzyl]-4-pyridin-2-ylpiperazine], for which the inhibition at 10 µM under setting [4] was 0%.
Regarding `O=C(c1cccc(C#Cc2cccc(O)c2)c1)N1CCN(c2ccccn2)CC1` [Compound 6, 3-({3-[(4-pyridin-2-ylpiperazin-1-yl)carbonyl]phenyl}ethynyl)phenol], the Ki was 1120 nM. The inhibition at 10 µM under setting [1] was found to be 75%.
As for `COc1ccc(C(=O)N2CCN(c3ncccn3)CC2)cc1C#Cc1ccccc1` [Compound 112, 2-{4-[4-methoxy-3-(phenylethynyl)benzoyl]piperazin-1-yl}pyrimidine], the inhibition at 10 µM under setting [3] was determined as 90%. Further, under “Biological Activity, Table 2A”, the Ki turned out to be 62.5 nM.
With `C(#Cc1cccc(CN2CCN(c3ccccn3)CC2)c1)C1=CCCCC1` [Compound 178, 1-[3-(cyclohex-1-en-1-ylethynyl)benzyl]-4-pyridin-2-ylpiperazine], the inhibition at 10 µM under setting [4] amounted to 0%.
